Reference: US9550811B2, “Peptide scaffold design” (BIONOR IMMUNO AS, priority 2010, dated 2017)
Where no end group is shown, it is not given here. [ ]: non-standard residue; d: D form. Cit = NC(=O)NCCC[C@H](N)C(=O)O; Nle = CCCC[C@H](N)C(=O)O

What was measured:
Assay in all cases: REVEAL binding assay
Conditions in all cases: score as percentage of the signal generated by the positive control peptide
HLA-B35 = tested on: HLA-B35
HLA-A24 = tested on: HLA-A24
From the text: (§5) The REVEAL™ binding assay determined the ability of each candidate peptide to bind to one or more MHC class I alleles and stabilizing the MHC-peptide complex. […] Detection is based on the presence or absence of the native conformation of the MHC-peptide complex. Each peptide is given a score relative to the positive control peptide, which is a known T cell epitope.

HLA-A1 = tested on: HLA-A1
HLA-A29 = tested on: HLA-A29
HLA-A11 = HLA-A11 (Homo sapiens, UniProt P04439, A114D/F33Y/S129P)
Experimental: (§1) Binding properties to HLA for the ninemers listed in table 6 were tested for the following HLA-classes:
(§2) HLA-A1, HLA-A2, HLA-A3, HLA-A11, HLA-A24, HLA-A29, HLA-B7, HLA-B8, HLA-B14, HLA-B15, HLA-B27, HLA-B35, HLA-B40.
(§3) The peptides were synthesized as a Prospector PEPscreen®: Custom Peptide Library. […] Quality control by MALDI-TOF Mass Spectrometry was carried out on 100% of samples.
(§4) The REVEAL™ binding assay determined the ability of each candidate peptide to bind to one or more MHC class I alleles and stabilizing the MHC-peptide complex. By comparing the binding to that of high and intermediate affinity T cell epitopes, the most likely immunogenic peptides in a protein sequence can be identified. Detection is based on the presence or absence of the native conformation of the MHC-peptide complex. Each peptide is given a score relative to the positive control peptide, which is a known T cell epitope.

HLA-B7 = HLA-B7 (Homo sapiens, UniProt P01889)
HLA-B7, sequence (P61769 21-119): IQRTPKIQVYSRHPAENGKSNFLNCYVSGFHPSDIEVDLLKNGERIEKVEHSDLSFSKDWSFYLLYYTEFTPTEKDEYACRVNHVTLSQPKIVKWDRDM
HLA-B7, sequence (P01889 25-299): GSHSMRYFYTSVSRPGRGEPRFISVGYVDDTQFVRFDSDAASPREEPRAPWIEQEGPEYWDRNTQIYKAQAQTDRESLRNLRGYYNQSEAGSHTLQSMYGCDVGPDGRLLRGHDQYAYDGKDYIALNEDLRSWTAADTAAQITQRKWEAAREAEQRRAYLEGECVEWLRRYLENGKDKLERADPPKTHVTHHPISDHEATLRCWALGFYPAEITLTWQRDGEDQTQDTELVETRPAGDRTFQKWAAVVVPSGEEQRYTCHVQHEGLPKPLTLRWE
Experimental: as §1, §2, §3, §4

HLA-A3 = HLA-A3 (Homo sapiens, UniProt P04439)
HLA-A3, sequence (P04439 25-299): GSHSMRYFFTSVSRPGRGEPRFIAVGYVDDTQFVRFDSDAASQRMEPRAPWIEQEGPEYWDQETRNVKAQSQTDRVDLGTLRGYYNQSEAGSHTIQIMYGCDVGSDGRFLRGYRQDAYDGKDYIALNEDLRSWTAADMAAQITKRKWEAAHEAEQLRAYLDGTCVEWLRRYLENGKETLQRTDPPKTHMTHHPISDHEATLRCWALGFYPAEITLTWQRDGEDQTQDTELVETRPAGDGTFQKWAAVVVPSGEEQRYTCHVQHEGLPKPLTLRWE
HLA-A3, sequence (P61769 21-119, further chain): as the sequence (P61769 21-119) above
Experimental: as §1, §2, §3, §4

HLA-A2 = HLA-A2 (Homo sapiens, UniProt P04439, D140Y/D185E/D98H/E176V/E277Q/G131W/G231S/I119V/I121R/I166T/I218V/N151K/N90K/P208A/P217A/Q86G/Q94H/R138H/R169H)
Experimental: as §1, §2, §3, §4

HLA-B27 = HLA-B27 (Homo sapiens, UniProt P01889, D138H/D201E/E176V/E204Q/G107R/H137Y/K202T/N104T/N87E/Q56L/Q94K/R106L/R155S/R180L/S101D/S121N/S48T/Y140D/Y33H/Y91C)
Experimental: as §1, §2, §3, §4

HLA-B14 = tested on: HLA-B14
HLA-B40 = tested on: HLA-B40
Experimental: as §1, §2
The peptides were synthesized as a Prospector PEPscreen®: Custom Peptide Library. Peptides 8-15 amino acids in length were synthesized in 0.5-2 mg quantities with high average purity. Quality control by MALDI-TOF Mass Spectrometry was carried out on 100% of samples.
as §4, with “epitope. The score of the test peptide is reported quantitatively as a percentage of the signal generated by the positive control peptide, and the peptide is indicated as having a putative pass or fail result. Assay performance is confirmed by including an intermediate control peptide that is known to bind with weaker affinity to the allele under investigation.” for “epitope.”

HLA-B8 = tested on: HLA-B8
HLA-B15 = tested on: HLA-B15
From the text: as §5

Row | Substance | REVEAL binding score, HLA-type B35 (HLA-B35) [%] | REVEAL binding score, HLA-type A24 (HLA-A24) [%] | REVEAL binding score, HLA-type A1 (HLA-A1) [%] | REVEAL binding score, HLA-type A29 (HLA-A29) [%] | REVEAL binding score, HLA-type A11 (HLA-A11) [%] | REVEAL binding score, HLA-type B7 (HLA-B7) [%] | REVEAL binding score, HLA-type A3 (HLA-A3) [%] | REVEAL binding score, HLA-type A2 (HLA-A2) [%] | REVEAL binding score, HLA-type B27 (HLA-B27) [%] | REVEAL binding score, HLA-type B14 (HLA-B14) [%] | REVEAL binding score, HLA-type B40 (HLA-B40) [%] | REVEAL binding score, HLA-type B8 (HLA-B8) [%] | REVEAL binding score, HLA-type B15 (HLA-B15) [%]
1 | ATGNLPGCS | 7.00 | 0.64 | 7.13 | 22.84 | 2.54 | 1.12 | 3.64 | 4.62 | 2.56 | 0.87 | 90.48 | 10.73 | 3.81
2 | DLMGYIPLV | 2.49 | 1.14 | 16.67 | 25.64 | 5.01 | 4.84 | 4.66 | 103.34 | 1.05 | 0.23 | 39.33 | 22.65 | 7.67
3 | EL[Nle]GYIPLI | 2.55 | 0.92 | 18.29 | 20.93 | 3.21 | 0.68 | 4.54 | 97.87 | 0.67 | 0.14 | 43.10 | 17.05 | 8.91
4 | GGQIIGGNY | 2.22 | 0.39 | 24.04 | 14.38 | 2.40 | 1.09 | 2.23 | 7.06 | 0.24 | 0.25 | 15.03 | 10.52 | 90.62
5 | GGQIVGGVY | 0.54 | 1.78 | 13.97 | 20.46 | 2.71 | 3.99 | 3.47 | 6.88 | 0.66 | 0.32 | 30.75 | 14.66 | 110.34
6 | GITFSIYLI | 9.27 | 3.05 | 9.61 | 10.42 | 4.88 | 2.07 | 1.42 | 7.27 | 3.29 | 0.63 | 68.30 | 8.94 | 8.15
7 | GKVIDTLTC | 3.11 | 0.41 | 14.77 | 14.26 | 3.96 | 0.25 | 3.69 | 4.89 | 0.84 | 0.16 | 19.45 | 13.63 | 7.31
8 | GNIPGSTYS | 7.86 | 0.00 | 7.54 | 24.38 | 1.54 | 0.94 | 5.04 | 5.07 | 1.58 | 0.34 | 55.59 | 6.32 | 4.80
9 | GNLPGCSFS | 4.80 | 1.13 | 6.44 | 13.48 | 2.41 | 1.84 | 3.54 | 6.11 | 13.44 | 0.81 | 80.68 | 8.71 | 3.96
10 | GP[Cit]IGVRAT | 2.25 | 0.16 | 18.60 | 11.88 | 2.72 | 5.38 | 3.48 | 9.16 | 0.59 | 0.13 | 19.61 | 9.99 | 7.29
